Measurements: US9079859B2, “Synthetic lethal targeting of glucose transport” (AUCKLAND UNISERVICES LIMITED, priority 2011, dated 2015)
Where two headings read alike, the source gives them in different places.

Experiments:
RCC4 and RCC4/VHL cells = assay type: cell-based
Procedure: Cell Viability Assays. For 2,3-bis[2-methoxy-4-nitro-5-sulfophenyl]-2H-tetrazolium-5-carboxanilide (XTT) assays, five thousand cells were plated in 96-well plates. The next day, vehicle (DMSO) or drug was added by serial dilution. Four days later, media were aspirated, XTT solution (0.3 mg/ml of XTT (Sigma), […] N-methyl dibenxopyrazine methyl sulfate (Sigma) in phenol red-free media) was added, and the plates were incubated at 37° C. for 1-2 hours. Metabolism of XTT was quantified by measuring the absorbance at 450 nm. IC50s were calculated using linear interpolation. For clonogenic survival assays, three hundred cells were plated per 60 mm tissue culture dish. The cells were allowed to attach overnight and then treated with vehicle or drug for 14 days. Colonies were fixed and stained with crystal violet (0.1% crystal violet in 95% ethanol). All conditions were measured in triplicate and each experiment was done in duplicate or triplicate. To determine necrosis, cells were treated with drug for a given time point. Media and cells were collected, centrifugated, and resuspended in 0.4% trypan blue (Invitrogen). Live and dead cells were counted on a hematocytometer.

RCC4 cells = assay: Glucose uptake (2-deoxy-D-[3H]glucose), RCC4; assay type: cell-based
Procedure: Glucose Uptake. One hundred thousand cells were plated per well in a six-well plate. The next day, cells were treated with the indicated concentration of drug and incubated for the indicated time. Cells were then washed twice with phosphate-buffered saline, incubated in low-glucose medium for 30 minutes, and 3H-2-deoxyglucose (0.5 μCi) was added in 1 ml of glucose-free media for an additional hour. Cells were washed twice in PBS and lysed (0.2 N NaOH and 0.2% sodium dodecyl sulfate). Glucose uptake was quantified with a scintillation counter.

786-O xenograft tumors = assay: FDG-PET imaging of glucose uptake in renal carcinoma xenograft; assay type: in vivo, mice; conditions: three daily doses (STF-35 11.6 mg/kg i.p.)
Procedure: In Vivo Studies. All experiments were approved by Stanford's Administrative Panel on Laboratory Animal Care (APLAC) and in accordance with both institutional and national guidelines. Five million cells were implanted subcutaneously into the flanks of nude mice (4-6 weeks old)(Charles River Laboratories). Tumors were measured with calipers. Volume was calculated by the following formula: width^2×0.5 length. Once tumors reached an average size of >20 mm^3, mice were randomized into vehicle (DMSO diluted in 16% cremaphor EL/PBS) or treated groups. Mice were treated with STF-35 (11.6 mg/kg for the first 3 days, followed by 7.8 mg/kg for the 7-9 days). Five-micron sections were cut for immunohistochemistry. Sections were counterstained with hematoxylin and eosin. For 2-[^18F]-fluoro-2-deoxy-glucose-positron emission tomography imaging, mice bearing tumors were fasted overnight. The next day, the mice were anesthetized with 2% isoflurane and injected intraperitoneally with 250 μCi of FDG. Mice were imaged for 10 minutes at one hour post-injection, using a Rodent R4 microPET system (Concorde Microsystems). Data were reconstructed into three-dimensional volumes using an ordered subset expectation maximization algorithm and were calibrated into units of percent injected dose per gram.

LC3 = conditions: leading to cell death; cited from earlier work
[1] = short-term (XTT) and/or long-term (clonogenic) survival assays

In the case of `O=CC[C@@H](O)[C@H](O)[C@H](O)CO` [2-DG, 2-deoxy-D-glucose], the “cytotoxicity to RCC4 and RCC4/VHL cells” value (RCC4 and RCC4/VHL cells) was “not cytotoxic”.

In the case of `Cc1cccc(Nc2nc(-c3ccncc3)cs2)c1` [STF-62247], the “glucose uptake in VHL-defective cells, analogs and control cytotoxins” value (RCC4 cells) is listed as “did not decrease”, the “glucose (FDG) uptake within the tumors by FDG-PET” value (786-O xenograft tumors) is listed as “did not have a decrease” and the “autophagy in VHL-deficient RCCs” value (LC3) is listed as “induce autophagy”.

In the case of `O=C(O)C(=O)CBr` [bromopyruvate], the “cytotoxicity to RCC4 and RCC4/VHL cells” value (RCC4 and RCC4/VHL cells; [1]) was “toxic to both”.

With `Clc1ccccc1C(c1ccccc1)(c1ccccc1)n1ccnc1` [clotrimazole] the “cytotoxicity to RCC4 and RCC4/VHL cells” value (RCC4 and RCC4/VHL cells) was “toxic to both”.

With `CC(=O)CC(=O)Nc1ccc(Cl)c(C(F)(F)F)c1` [fasentin] the “cytotoxicity to RCC4 and RCC4/VHL cells” value (RCC4 and RCC4/VHL cells; [1]) was “relatively non-toxic”.

In the case of `O=C(O)c1nn(Cc2ccc(Cl)cc2Cl)c2ccccc12` [lonidamine], the “cytotoxicity to RCC4 and RCC4/VHL cells” value (RCC4 and RCC4/VHL cells) was “toxic to both”.

In the case of `O=C(CCc1ccc(O)cc1)c1c(O)cc(O)cc1O` [phloretin], the “cytotoxicity to RCC4 and RCC4/VHL cells” value (RCC4 and RCC4/VHL cells) was “toxic to both”.
